Reference: patent publication US7989165B2, “Tape stripping methods for analysis of skin disease and pathological skin state” (DermTech International, priority 2004, dated 2011)
“And” between values parts separate entries of the source, which are not always exact repeats. Equal entries are not always repeated. Marks after values point to notes of the source that are not given here.

System: IL-8 mRNA
Assay: Semi-quantitative RT-PCR of IL-8 mRNA relative to β-actin in SLS-occluded skin (tape and biopsy)
Assay type: in vivo, human
Source text: Clinical protocols: The study protocols were reviewed and approved by an independent IRB (BioMed IRB, San Diego) and all subjects signed informed consent. Ten healthy women, ages 21-55 were enrolled in the study. Regions of unblemished, normal appearing skin on the mid back were chosen for the application of 2 occlusive patches in the form of bandages approximately 4 cm×6.5 cm. The bandages were made using a clear, non-porous plastic hypoallergenic adhesive tape. In the center of this tape was a Webril (non-woven cotton) patch measuring approximately 2 cm×4.5 cm. One Webril patch contained 0.6 ml of 1% aqueous sodium lauryl sulfate and the other contained 0.6 ml of sterile water as the vehicle control. […] At 24 hours post application, the SLS and water patches were removed and the skin allowed to air dry for 15 minutes before scoring. The sites were scored by a trained technician using the scale provided below. Patched sites were large enough that two areas could be tape harvested without overlap and room left for a shave biopsy (˜2×2 mm). Skin sites were tape stripped with 4 tapes each and then a shave biopsy taken under local anesthetic (lidocaine HCl 1% and epinephrine 1:100,000; Abbott Laboratories). The tapes were applied to the skin using 20 seconds of firm pressure with a circular motion The tape used for tape stripping was a synthetic rubber-based adhesive on a polyurethane film (Product No. 90068, Adhesive Research, Glen Rock, Pa.). An area of uninvolved skin was tape harvested and shave biopsied in an identical manner. Tapes were stored in individual eppendorf tubes at −80 until extraction; biopsy samples were placed in buffer RLT and stored at −80 until extraction. Skin responses to each patch application were examined and graded under light supplied by a 100-watt incandescent blue bulb. The following grading scale was used: 0, no visible reaction; 1, slight, pink, patchy erythema; 2, mild confluent, pink erythema; 3, moderate erythema (definite redness) with edema; 4, strong erythema (very intense redness) with edema. In a second study, 3 subjects had 3 patches containing 1% SLS and 3 water patches applied to the mid back for 24 hours: Patches were removed, scored and tape stripped as above. In a third study, two individuals were tape stripped on uninvolved skin on the upper back at three adjacent sites as above. RNA harvested in these last two studies was used in the DNA microarray experiments described below.
Isolation of RNA: The RNA within skin cells adherent to the 4 tapes used to harvest a site was pooled by simultaneously extracting the tapes in a volume of buffer RLT (supplied with RNeasy kit). Extraction was performed using the manufacturer's directions and included a Proteinase K digestion, sonication of tapes and “on-column” DNase I digestion. RNA was eluted in 100 microliters of sterile, RNase free water. Extraction of biopsies was performed with the same kit according to the manufacturer's instructions.
Quantitative RT-PCR: 10 μl of RNA was reverse transcribed (RT) into cDNA with the Sensiscript Reverse Transcriptase kit and random hexamers in a final volume of […] according to the manufacturer's directions. The reaction was diluted 5-fold with sterile, nuclease-free water (Ambion) for use in the subsequent amplification/detection reaction. For each specific mRNA detection, 3 replicate RT^+ reactions and one RT^− (no reverse transcriptase; negative control) reaction were performed. Two amplification/detection reactions were done on each RT^+ reaction to yield a total of 6 independent determinations of the threshold value (Ct; discussed below).
Amplification and detection of specific mRNA: Specific mRNAs were converted to cDNA as described above. Specific cDNAs were semi-quantified using gene specific primer/probes (5′-nuclease assay) and fluorescence detection.

[1] = SLS-occluded skin vs uninvolved skin

## CCCCCCCCCCCCOS(=O)(=O)[O-].[Na+] [SLS, sodium lauryl sulfate]
SLS-occluded skin relative to uninvolved skin, biopsy samples, per subject, > = minimum estimate, sulfate
  fold-change in IL-8/β-actin mRNA ratio, Biopsy: >171**^† fold and >12**^† fold and >101**^† fold and >778**^† fold and >42**^† fold and >594**^† fold and >368**^† fold and >1.1 fold (2×) and 84**^† fold
SLS-occluded skin relative to uninvolved skin, tape samples, per subject, > = minimum estimate, sulfate
  fold-change in IL-8/β-actin mRNA ratio, Tape: 24**^† fold and >9.3**^† fold and >6.8** fold and >235**^† fold and >41**^† fold and 18** fold and >3** fold and 6**^† fold
[1]
  biopsy samples with significant increases in IL-8/actin mRNA ratio: 8 of 10
  tape-harvested samples with significantly increased IL-8/β-actin mRNA ratio: 8 of 10
SLS-occluded skin, biopsy RNA, per subject and average, sulfate
  ΔCt,IL-8, Biopsy: 4.13 and 6.56 ± 0.10 and 3.06 ± 0.11 and 0.76 ± 0.13 and 5.11 ± 0.06 and 1.67 ± 0.08 and 1.06 ± 0.07 and 9.81 ± 0.26 and 9.15 ± 0.15 and 1.82 ± 0.05 and 2.29 ± 0.13
SLS-occluded skin, tape-harvested RNA, per subject and average, > = minimum ΔCt (Ct assigned 37), sulfate
  ΔCt,IL-8, Tape: −1.28 and −0.89 and −1.28 ± 0.11 and −3.05 ± 0.15 and −0.05 ± 0.11 and −0.68 ± 0.08 and −0.44 ± 0.06 and 0.02 ± 0.17 and 0.56 ± 0.07 and >1.51 ± 0.17 and −0.36 ± 0.05 and −2.59 ± 0.07
tape-harvested, from ΔCt −1.28 and average ΔCt 1.54
  IL-8/actin mRNA ratio of subject 4's SLS site vs average for water-occluded samples: 7.1 fold
tape-harvested, from ΔCt −1.28 and average ΔCt >2.49
  IL-8/β-actin mRNA ratio of subject 4's SLS site vs average value for uninvolved skin: ≥ 13.6 fold
